Laboratory results taken from patent US5635593A (priority 1995, dated 1997).
Peptide text beside a SMILES is read from it.

Assays:
[1] = system: blood pressure responses to BK; type: in vivo; conditions: anaesthetized rat, dose response curve n=10
BK2 receptor [2] = target: T1, BK2 receptor (Oryctolagus cuniculus, UniProt Q28642); test: rabbit jugular vein (RJV) in vitro, antagonism of BK; conditions: percentage recovery after washing
T1 construct: from tissue; host or cells: whole animal (rabbit, LPS-pretreated), blood pressure response
T1 sequence (Q28642 1-367): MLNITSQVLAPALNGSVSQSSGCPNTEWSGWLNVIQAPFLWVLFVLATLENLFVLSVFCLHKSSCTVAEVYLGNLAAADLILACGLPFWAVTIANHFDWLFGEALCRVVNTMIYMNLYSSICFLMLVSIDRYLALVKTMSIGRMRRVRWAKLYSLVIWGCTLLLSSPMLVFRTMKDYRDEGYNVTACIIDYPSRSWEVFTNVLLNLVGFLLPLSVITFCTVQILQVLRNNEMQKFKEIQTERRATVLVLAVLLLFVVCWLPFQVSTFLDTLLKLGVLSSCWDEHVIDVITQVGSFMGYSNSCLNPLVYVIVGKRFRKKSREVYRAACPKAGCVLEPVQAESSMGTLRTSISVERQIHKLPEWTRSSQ
Method: (§1) Thus, in vitro studies were performed on standard assay systems, namely, guinea-pig ileum (GPI), rat uterus (RU) and rabbit jugular vein (RJV). […] The potency of each compound was assessed as a pA2 value according to the method of Arunlakshana & Schild, Br. J. Pharmacol. Chemother., 14:48-58 (1959). The pA2 can be defined as the negative logarithm of the molar concentration of the antagonist in the presence of which the potency of the agonist is reduced two-fold, i.e., twice the amount of agonist is required to produce a given response in the presence of, than in the absence of, the antagonist. A high potency of antagonism is indicated by a high pA2 value. i.e., a low concentration of antagonist is effective.
The percentage recovery (% Rec) was also determined for compounds with respect to each assay. Percentage recovery is a measure of the duration of action, the lower the percentage recovery value, the greater the duration of action of the compound.

BK2 receptor [3] = target: T2, BK2 receptor (Cavia porcellus, UniProt O70526); test: guinea-pig ileum (GPI) in vitro, antagonism of BK
T2 construct: tested for activity on guinea pig ileum in vitro on the standard tissue bath/strain gauge system; from tissue; host or cells: guinea pig ileum
T2 sequence (O70526 1-372): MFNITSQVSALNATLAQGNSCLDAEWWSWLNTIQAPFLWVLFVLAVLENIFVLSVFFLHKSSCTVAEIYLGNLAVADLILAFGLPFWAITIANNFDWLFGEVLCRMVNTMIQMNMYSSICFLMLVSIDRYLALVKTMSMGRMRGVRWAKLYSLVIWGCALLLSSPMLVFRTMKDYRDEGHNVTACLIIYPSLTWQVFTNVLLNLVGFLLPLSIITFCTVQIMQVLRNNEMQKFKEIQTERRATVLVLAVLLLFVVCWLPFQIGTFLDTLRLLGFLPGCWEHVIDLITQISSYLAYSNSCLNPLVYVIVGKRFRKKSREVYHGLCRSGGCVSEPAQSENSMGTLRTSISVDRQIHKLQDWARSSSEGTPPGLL
Method: as §1
The percentage recovery (% Rec) was also determined for compounds with respect to each assay.
The Cys-modified monomers and the resultant dimers were tested for activity on guinea pig ileum in vitro on the standard tissue bath/strain gauge system as before.

BK2 -receptor = target: T3, BK2 -receptor (Rattus norvegicus, UniProt P25023); test: rat uterus (RU) in vitro, antagonism of BK; conditions: percentage recovery after washing
T3 construct: guinea-pig ileum (GPI), rat uterus (RU) and rabbit jugular vein (RJV); from tissue; host or cells: rat uterus
T3 sequence (P25023 1-396): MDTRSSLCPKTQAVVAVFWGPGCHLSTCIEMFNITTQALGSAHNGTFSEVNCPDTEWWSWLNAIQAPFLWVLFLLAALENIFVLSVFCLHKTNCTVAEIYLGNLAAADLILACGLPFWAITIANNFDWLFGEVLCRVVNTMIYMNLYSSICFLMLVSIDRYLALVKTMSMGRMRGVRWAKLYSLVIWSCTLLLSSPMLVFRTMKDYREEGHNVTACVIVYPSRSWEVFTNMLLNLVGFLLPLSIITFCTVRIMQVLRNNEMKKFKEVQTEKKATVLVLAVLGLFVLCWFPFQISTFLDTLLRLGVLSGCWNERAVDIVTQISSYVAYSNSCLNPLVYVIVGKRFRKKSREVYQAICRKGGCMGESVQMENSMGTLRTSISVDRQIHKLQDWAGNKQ

Compound	ED50 of BK, blood pressure [1]	% REC RJV (BK2 receptor [2])	pA2 guinea pig ileum (BK2 receptor [3]; against BK)	% REC GPI (BK2 receptor [3]; percentage recovery after washing)	% REC rat uterus (BK2 -receptor)	Kb (BK2 receptor [3]; against BK, read-out: pA2 guinea pig ileum (converted))
NC(N)=NCCC[C@H](NC(=O)[C@H](Cc1ccccc1)NC(=O)[C@@H]1CCCN1C(=O)[C@H](CO)NC(=O)[C@H](Cc1ccccc1)NC(=O)CNC(=O)[C@@H]1CCCN1C(=O)[C@@H]1CCCN1C(=O)[C@@H](N)CCCN=C(N)N)C(=O)O [BK, Arg^1 -Pro^2 -Pro^3 -Gly^4 -Phe^5 -Ser^6 -Pro^7 -Phe^8 -Arg^9] (H-RPPGFSPFR-OH)	0.4 nmol					
CC(C)C[C@H](NC(=O)[C@@H](Cc1ccccc1)NC(=O)[C@H](CSC1CC(=O)N(CCCCCCN2C(=O)CC(SC[C@H](NC(=O)[C@H](Cc3ccccc3)NC(=O)CNC(=O)[C@@H]3C[C@@H](O)CN3C(=O)[C@@H]3CCCN3C(=O)[C@H](CCCNC(=N)N)NC(=O)[C@H](N)CCCNC(=N)N)C(=O)N[C@H](Cc3ccccc3)C(=O)N[C@@H](CC(C)C)C(=O)N[C@@H](CCCNC(=N)N)C(=O)O)C2=O)C1=O)NC(=O)[C@H](Cc1ccccc1)NC(=O)CNC(=O)[C@@H]1C[C@@H](O)CN1C(=O)[C@@H]1CCCN1C(=O)[C@H](CCCNC(=N)N)NC(=O)[C@H](N)CCCNC(=N)N)C(=O)N[C@@H](CCCNC(=N)N)C(=O)O (stereo partly shown) [CP-0127] (HELM PEPTIDE1{[dR].R.P.[Hyp].G.F.C.[dF].L.R}|PEPTIDE2{[dR].R.P.[Hyp].G.F.C.[dF].L.R}|CHEM1{[O=C1CC([*:1])C(=O)N1CCCCCCN1C(=O)CC([*:2])C1=O]}$PEPTIDE1,CHEM1,7:R3-1:R1|PEPTIDE2,CHEM1,7:R3-1:R2$$$V2.0)		10%	7.7	100%	50%	
CC(C)C[C@H](NC(=O)[C@@H](Cc1ccccc1)NC(=O)[C@H](CO)NC(=O)[C@H](Cc1ccccc1)NC(=O)CNC(=O)[C@@H]1C[C@@H](O)CN1C(=O)[C@@H]1CCCN1C(=O)[C@H](CCCNC(=N)N)NC(=O)[C@H](N)CSC1CC(=O)N(CCCCCCN2C(=O)CC(SC[C@@H](N)C(=O)N[C@@H](CCCNC(=N)N)C(=O)N3CCC[C@H]3C(=O)N3C[C@H](O)C[C@H]3C(=O)NCC(=O)N[C@@H](Cc3ccccc3)C(=O)N[C@@H](CO)C(=O)N[C@H](Cc3ccccc3)C(=O)N[C@@H](CC(C)C)C(=O)N[C@@H](CCCNC(=N)N)C(=O)O)C2=O)C1=O)C(=O)N[C@@H](CCCNC(=N)N)C(=O)O (stereo partly shown) [CP-0161] (HELM PEPTIDE1{[dC].R.P.[Hyp].G.F.S.[dF].L.R}|PEPTIDE2{[dC].R.P.[Hyp].G.F.S.[dF].L.R}|CHEM1{[O=C1CC([*:1])C(=O)N1CCCCCCN1C(=O)CC([*:2])C1=O]}$PEPTIDE1,CHEM1,1:R3-1:R1|PEPTIDE2,CHEM1,1:R3-1:R2$$$V2.0)					100%	316 nM
